US11279733B2, “Peptide antibiotics” (priority 2017, dated 2022)
Like-named read-outs stand apart in the source and are kept apart here.

Experiments:
[1] = tested on: A. baumannii ATCC 19606
Method in brief: (§1)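 Mid-log cultures grown in Mueller Hinton broth at 37° C were tested by 2-fold broth microdilution at 5×10^5 CFU/mL final. Compounds were dissolved in water and tested over a final range of 32 to 0.015 μg/mL.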

[2] = tested on: A. baumannii GN_093 PmxR
Method in brief: as §1

[3] = tested on: K. pneumoniae ATCC 13883
Method in brief: as §1

[4] = tested on: K. pneumoniae GN_102 PmxR
Method in brief: as §1

[5] = tested on: K. pneumoniae GN_106, PmxR
Method in brief: as §1

[6] = tested on: P. aeruginosa GN_105, PmxR
Method in brief: as §1

[7] = tested on: S. aureus ATCC 25923, MSSA
Method in brief: as §1

[8] = tested on: HEK293 cells; experiment: Cytotoxicity, resazurin assay, HEK293
Method in brief: (§2)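 Viability is measured by resazurin reduction (5 μM, 2 h, 37 °C) after cells seeded at 4000 per well are treated with compound for 24 h.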

[9] = tested on: Human kidney 2 (HK2) cells; experiment: Cytotoxicity, HK2 LDH assay
Method in brief: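 HK2 cells were seeded at 2000 per well in DMEM/F12 with 10% FBS and left to attach for 24 h at 37 °C, 5% CO2. They were then exposed for 24 h to 3-fold peptide dilutions starting from 600 μM solutions in quadruplicate. LDH release was read at 450 nm, and CC50 was fitted from dose-response curves.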

[10] = tested on: HepG2 cells; experiment: Cytotoxicity, resazurin assay, HepG2
Method in brief: as §2

[11] = tested on: Neisseria gonorrhoeae; experiment: MIC determination, Neisseria gonorrhoeae; format: cell-based
Method in brief: as §1

polymyxin B sulfate [PolymyxinB, reference compound]
MIC A. baumannii ATCC 19606 [1]: 0.25 µg/mL
MIC A. baumannii ATCC 19606 ([1]; A. baumannii ATCC 19606): 0.25 µg/mL
MIC, A. baumannii ATCC 19606 ([1]; Table 5): 0.25 µg/mL
MIC, A. baumannii ATCC 19606 ([1]; Table 6): 0.25 µg/mL
MIC A. baumannii GN_093 PmxR [2]: 64 µg/mL
MIC A. baumannii GN_093 PmxR ([2]; A. baumannii GN_093 PmxR): 64 µg/mL
MIC, A. baumannii Cl Ptyela 10073 4512:2, PmxR ([2]; Table 5, polymyxin-resistant): 64 µg/mL
MIC A. baumannii GN_093 PmxR ([2]; Table 6, polymyxin-resistant): 64 µg/mL
MIC A. baumannii GN_093 PmxR ([2]; polymyxin-resistant): 64 µg/mL
MIC A. baumannii Cl Ptyela 10073 4512:2, PmxR ([2]; strain name as in Table 11): 64 µg/mL
MIC K. pneumoniae ATCC 13883 [3]: 1 µg/mL
MIC K. pneumoniae ATCC 13883 ([3]; K. pneumoniae ATCC 13883): 1 µg/mL
MIC, K. pneumoniae ATCC 13883 ([3]; Table 5): 1 µg/mL
MIC, K. pneumoniae ATCC 13883 ([3]; Table 6): 1 µg/mL
MIC K. pneumoniae GN_102 PmxR [4]: 64 µg/mL
MIC K. pneumoniae GN_102 PmxR ([4]; K. pneumoniae GN_102 PmxR): 64 µg/mL
MIC, K. pneumoniae Cl Koprana 10065 0661:1, PmxR ([4]; Table 5, polymyxin-resistant): 64 µg/mL
MIC K. pneumoniae GN_102 PmxR ([4]; Table 6, polymyxin-resistant): 64 µg/mL
MIC K. pneumoniae GN_102 PmxR ([4]; polymyxin-resistant): 64 µg/mL
MIC K. pneumoniae Cl Koprana 10065 0661:1 PmxR ([4]; strain name as in Table 11): 64 µg/mL
MIC K. pneumoniae GN_106, PmxR [5]: 64 µg/mL
MIC K. pneumoniae GN_106, PmxR ([5]; K. pneumoniae GN_106, PmxR): 64 µg/mL
MIC, K. pneumoniae Cl 138-16347-20362, PmxR ([5]; Table 5, polymyxin-resistant): 64 µg/mL
MIC K. pneumoniae GN_106, PmxR ([5]; Table 6, polymyxin-resistant): 64 µg/mL
MIC K. pneumoniae GN_106, PmxR ([5]; polymyxin-resistant): 64 µg/mL
MIC K. pneumoniae Cl 183-16357-20352, PmxR ([5]; strain name as in Table 11): 64 µg/mL
MIC P. aeruginosa GN_105, PmxR [6]: >128 µg/mL
MIC P. aeruginosa GN_105, PmxR ([6]; P. aeruginosa GN_105, PmxR): >128 µg/mL
MIC, P. aeruginosa PA9704, PmxR ([6]; Table 5, polymyxin-resistant): >128 µg/mL
MIC P. aeruginosa GN_105, PmxR ([6]; Table 6, polymyxin-resistant): >128 µg/mL
MIC P. aeruginosa GN_105, PmxR ([6]; polymyxin-resistant): >128 µg/mL
MIC P. aeruginosa PA9704, PmxR ([6]; strain name as in Table 11): >128 µg/mL
MIC S. aureus ATCC 25923, MSSA [7]: >64 µg/mL
MIC S. aureus ATCC 25923, MSSA ([7]; S. aureus ATCC 25923, MSSA): >64 µg/mL
MIC, S. Aureus ATCC 25923, MSSA ([7]; Table 5): >64 µg/mL
MIC, S. aureus ATCC 25923, MSSA ([7]; Table 6): >64 µg/mL
CC50 ([8]; read-out: HEK-293-CC50, HEK293, 24 h): > 300 µM
CC50 ([8]; read-out: HEK-293-CC50, HEK293 cells): > 300 µM
CC50 ([8]; read-out: HEK-293-CC50, Table 5, HEK293 cells): > 300 µM
CC50 ([8]; read-out: HEK-293-CC50, Table 6, HEK293 cells): > 300 µM
CC50 ([8]; read-out: HEK-293 CC50, HEK293 cells): > 300 µM
CC50 ([9]; read-out: HK2 (LDH) CC50, HK2 cells, LDH): 125 µM
CC50 ([9]; read-out: HK2 (LDH)-CC50, HK2, LDH, 24 h): 125 µM
CC50 ([9]; read-out: HK2 (LDH)-CC50, HK2 cells, LDH): 125 µM
CC50 ([9]; read-out: HK2 (LDH)-CC50, Table 5, HK2 cells, LDH): 125 µM
CC50 ([9]; read-out: HK2 (LDH)-CC50, Table 6, HK2 cells, LDH): 125 µM
CC50 ([10]; read-out: Hep G2-CC50, HepG2, 24 h): > 300 µM
CC50 ([10]; read-out: Hep G2-CC50, HepG2 cells): > 300 µM
CC50 ([10]; read-out: Hep G2-CC50, Table 5, HepG2 cells): > 300 µM
CC50 ([10]; read-out: Hep G2-CC50, Table 6, HepG2 cells): > 300 µM
CC50 ([10]; read-out: Hep G2 CC50, HepG2 cells): > 300 µM
MIC N. gonorrhoeae F89 ([11]; strain F89): 9.38 µg/mL
MIC N. gonorrhoeae FA19 ATCC BAA-1838 ([11]; strain FA19 ATCC BAA-1838): 12.5 µg/mL
MIC N. gonorrhoeae FA1090 A25 ATCC 700825 ([11]; strain FA1090 A25 ATCC 700825): 10.42 µg/mL
MIC N. gonorrhoeae H041 ([11]; strain H041): 8.33 µg/mL
